One assay has as its target T1, hTGR5 (Homo sapiens, UniProt Q8TDU6).
T1 construct: expressed in transfected cells; host or cells: HEK293 cells, transiently co-transfected with the pCRE TA-Luciferase reporter
T1 sequence (Q8TDU6 1-330): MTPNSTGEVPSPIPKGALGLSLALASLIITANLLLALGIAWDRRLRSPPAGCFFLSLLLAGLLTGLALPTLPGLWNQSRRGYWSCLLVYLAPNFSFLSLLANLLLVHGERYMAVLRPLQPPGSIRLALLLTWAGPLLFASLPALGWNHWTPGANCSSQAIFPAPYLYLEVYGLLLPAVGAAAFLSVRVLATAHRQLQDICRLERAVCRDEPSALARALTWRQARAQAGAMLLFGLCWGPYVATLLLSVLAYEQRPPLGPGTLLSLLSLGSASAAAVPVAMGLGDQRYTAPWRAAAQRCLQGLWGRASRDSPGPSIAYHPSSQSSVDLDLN
The assay can be described thus: TGR5/CRE Luciferase Assay (hTGR5). It is filed as cell-based. Particulars: for EC50: HEK 293 cells co-transfected with pCMV tag4b-TGR5h and pCRE TA-Luciferase, overnight incubation; for hTGR5 % trans: percentage of the 10 μM LCA value, HEK 293 cells transfected with hTGR5. The protocol: (§1) TGR5/CRE Luciferase Assay
(§2) In the following Tables TGR5 activation by compounds of the invention and subsequent increase in intracellular cAMP were evaluated using a luciferase reporter gene assay. Human embryonic kidney (HEK) 293 cells were transiently co-transfected with pCMV tag4b-TGR5 h (to follow hTGR5 activation) or pCMV AC6-TGR5m (to follow mTGR5 activation) expression plasmids and the pCRE TA-Luciferase reporter plasmid using the JET PEI reagent (Polyplus transfection). Transfected cells were seeded in 96-well plates and incubated overnight with the test compounds at increasing concentrations tested in duplicate. Lithocolic acid (LCA) at 10 μM was used as a positive reference compound. The cAMP-dependent luciferase expression was followed using the BrightGlo reagent according to the manufacturer (Promega) instructions. Luminescence was read with a Mithras plate reader (Berthold) or a Victor3™ V1420 (Perkin Elmer). […] Concentration-response curves were fitted by a nonlinear regression analysis to a 4 parameter logistic equation

A further assay has as its target T2, mTGR5 (Mus musculus, UniProt Q80SS6).
T2 construct: expressed in transfected cells; host or cells: HEK293 cells, transiently co-transfected with the pCRE TA-Luciferase reporter
T2 sequence (Q80SS6 1-329): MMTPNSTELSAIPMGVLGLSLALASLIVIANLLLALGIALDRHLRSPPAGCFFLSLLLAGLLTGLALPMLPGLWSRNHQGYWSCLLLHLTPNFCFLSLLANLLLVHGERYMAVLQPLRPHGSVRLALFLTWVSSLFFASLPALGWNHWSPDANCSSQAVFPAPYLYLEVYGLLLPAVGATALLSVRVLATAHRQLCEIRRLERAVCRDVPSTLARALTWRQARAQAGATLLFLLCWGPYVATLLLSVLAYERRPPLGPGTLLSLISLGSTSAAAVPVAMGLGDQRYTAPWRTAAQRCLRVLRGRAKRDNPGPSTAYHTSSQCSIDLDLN
Put plainly: TGR5/CRE Luciferase Assay (mTGR5). It is filed as cell-based. The following applies: for EC50: HEK 293 cells co-transfected with pCMV AC6-TGR5m and pCRE TA-Luciferase, overnight incubation; for mTGR5 % trans: percentage of the 10 μM LCA value, HEK 293 cells transfected with mTGR5. The protocol:
as §1, §2

The term EC50 denotes the midpoint of the concentration-response curve. A low value points to higher potency in that assay. As to `COCCOc1ccc(COC(=O)C2=C(C)N(C[C@H]3CCCO3)C(=O)C[C@H]2c2ccc(Cl)cc2)cc1` (racemic) [Example 136, 4-(2-methoxyethoxy)phenyl]methyl (4S)-4-(4-chlorophenyl)-6-methyl-2-oxo-1-[[(2R)-tetrahydrofuran-2-yl]methyl]-3,4-dihydropyridine-5-carboxylate and 4-(2-methoxyethoxy)phenyl]methyl (4R)-4-(4-chlorophenyl)-6-methyl-2-oxo-1-[[(2S)-tetrahydrofuran-2-yl]methyl]-3,4-dihydropyridine-5-carboxylate], at hTGR5, the EC50 was 20 nM and the hTGR5 % trans is recorded as 93%. At mTGR5, this compound registered an EC50 of 40 nM and a mTGR5 % trans of 111%.
`CC1=C(C(=O)OC2CCc3ccccc32)[C@H](c2ccc(Cl)cc2)CC(=O)N1C[C@H]1CCCO1` (mixture of isomers) [Example 137, Indan-1-yl (4S)-4-(4-chlorophenyl)-6-methyl-2-oxo-1-[[(2R)-tetrahydrofuran-2-yl]methyl]-3,4-dihydropyridine-5-carboxylate]: on hTGR5, a half-maximal response (EC50) required 380 nM and the hTGR5 % trans came to 70%. For the same compound, at mTGR5, the EC50 came out at 930 nM and the mTGR5 % trans was determined as 40%.
On hTGR5, `CC1=C(C(=O)OCc2ccccn2)[C@H](c2ccc(Cl)cc2)CC(=O)N1C[C@H]1CCCO1` (racemic) [Example 145, 2-pyridylmethyl (4S)-4-(4-chlorophenyl)-6-methyl-2-oxo-1-[[(2R)-tetrahydrofuran-2-yl]methyl]-3,4-dihydropyridine-5-carboxylate and 2-pyridylmethyl (4R)-4-(4-chlorophenyl)-6-methyl-2-oxo-1-[[(2S)-tetrahydrofuran-2-yl]methyl]-3,4-dihydropyridine-5-carboxylate] showed a 50% effective concentration (EC50) of 1000 nM and a hTGR5 % trans of 72%. At mTGR5, this compound registered a concentration giving a half-maximal response (EC50) of 2500 nM and a mTGR5 % trans of 74%.
At hTGR5, `CC1=C(C(=O)OCc2cccnc2)[C@H](c2ccc(Cl)cc2)CC(=O)N1C[C@H]1CCCO1` (racemic) [Example 146, 3-pyridylmethyl (4S)-4-(4-chlorophenyl)-6-methyl-2-oxo-1-[[(2R)-tetrahydrofuran-2-yl]methyl]-3,4-dihydropyridine-5-carboxylate and 3-pyridylmethyl (4R)-4-(4-chlorophenyl)-6-methyl-2-oxo-1-[[(2S)-tetrahydrofuran-2-yl]methyl]-3,4-dihydropyridine-5-carboxy late] showed an EC50 of 350 nM and a hTGR5 % trans of 78%. For the same compound, at mTGR5, the EC50 was 450 nM and the mTGR5 % trans is recorded as 77%.
The corresponding values for `COCCOc1ccc(COC(=O)C2=C(C)N(C[C@@H]3CCCO3)C(=O)C[C@H]2c2ccc(Cl)cc2)cc1` (racemic) [Example 147, [4-(2-methoxyethoxy)phenyl]methyl (4S)-4-(4-chlorophenyl)-6-methyl-2-oxo-1-[[(2S)-tetrahydrofuran-2-yl]methyl]-3,4-dihydropyridine-5-carboxylate and [4-(2-methoxyethoxy)phenyl]methyl (4R)-4-(4-chlorophenyl)-6-methyl-2-oxo-1-[[(2R)-tetrahydrofuran-2-yl]methyl]-3,4-dihydropyridine-5-carboxylate] are 190 nM, 77%, 450 nM and 112%.
On hTGR5, `COc1ccccc1COC(=O)C1=C(C)N(C[C@H]2CCCO2)C(=O)C[C@H]1c1ccc(Cl)c(Cl)c1` (racemic) [Example 149, (2-methoxyphenyl)methyl (4S)-4-(3,4-dichlorophenyl)-6-methyl-2-oxo-1-[[(2R)-tetrahydrofuran-2-yl]methyl]-3,4-dihydropyridine-5-carboxylate and (2-methoxyphenyl)methyl (4R)-4-(3,4-dichlorophenyl)-6-methyl-2-oxo-1-[[(2S)-tetrahydrofuran-2-yl]methyl]-3,4-dihydropyridine-5-carboxylate] had an EC50 of 20 nM and a hTGR5 % trans of 91%. Further, on mTGR5, the concentration for a half-maximal effect (EC50) was 70 nM and the mTGR5 % trans worked out at 89%.
The corresponding values for `COc1ccccc1COC(=O)C1=C(C)N(C[C@H]2CCCO2)C(=O)C[C@H]1c1ccc(C(F)(F)F)nc1` (racemic) [Example 150, (2-Methoxyphenyl)methyl (4S)-6-methyl-2-oxo-1-[[(2R)-tetrahydrofuran-2-yl]methyl]-4-[6-(trifluoromethyl)-3-pyridyl]-3,4-dihydropyridine-5-carboxylate and (2-methoxyphenyl)methyl (4R)-6-methyl-2-oxo-1-[[(2S)-tetrahydrofuran-2-yl]methyl]-4-[6-(trifluoromethyl)-3-pyridyl]-3,4-dihydropyridine-5-carboxylate] are 25 nM, 110%, 100 nM and 99%.
At hTGR5, `COc1ccccc1COC(=O)C1=C(C)N(C[C@H]2CCCO2)C(=O)C[C@H]1c1cccnc1Cl` (racemic) [Example 151, (2-Methoxyphenyl)methyl (4R)-4-(2-chloro-3-pyridyl)-6-methyl-2-oxo-1-[[(2R)-tetrahydrofuran-2-yl]methyl]-3,4-dihydropyridine-5-carboxylate and (2-methoxyphenyl)methyl (4S)-4-(2-chloro-3-pyridyl)-6-methyl-2-oxo-1-[[(2S)-tetrahydrofuran-2-yl]methyl]-3,4-dihydropyridine-5-carboxylate] gave an EC50 of 2200 nM and a hTGR5 % trans of 87%. In addition, at mTGR5, it took 12500 nM to reach a half-maximal effect (EC50) and the mTGR5 % trans stood at 44%.
On the same counts, the results for `COc1ccccc1COC(=O)C1=C(C)N(C[C@H]2CCCO2)C(=O)C[C@H]1c1ccc2nsnc2c1` (racemic) [Example 152, (2-Methoxyphenyl)methyl (4S)-4-(2,1,3-benzothiadiazol-5-yl)-6-methyl-2-oxo-1-[[(2R)-tetrahydrofuran-2-yl]methyl]-3,4-dihydropyridine-5-carboxylate and (2-methoxyphenyl)methyl (4R)-4-(2,1,3-benzothiadiazol-5-yl)-6-methyl-2-oxo-1-[[(2S)-tetrahydrofuran-2-yl]methyl]-3,4-dihydropyridine-5-carboxylate] are 30 nM, 106%, 48 nM and 66%.
On mTGR5, `COC(=O)CN1C(=O)CC(c2ccc(Cl)cc2)C(C(=O)OCc2ccccc2OC)=C1C` (centres unmarked) [Compound 73, (2-methoxyphenyl)methyl 4-(4-chlorophenyl)-1-(2-methoxy-2-oxo-ethyl)-6-methyl-2-oxo-3,4-dihydropyridine-5-carboxylate] came in with a concentration giving a half-maximal response (EC50) of 30 nM and a mTGR5 % trans of 93%.
On the same counts, the results for `COCCN1C(=O)CC(c2ccc(Cl)cc2)C(C(=O)OCc2cccc(F)c2)=C1C` (centres unmarked) [Example 85, (3-fluorophenyl)methyl 4-(4-chlorophenyl)-1-(2-methoxyethyl)-6-methyl-2-oxo-3,4-dihydropyridine-5-carboxylate] are 700 nM and 82%.
Consider `COCCN1C(=O)CC(c2ccc(Cl)cc2)C(C(=O)OCc2ccc(C(F)(F)F)cc2)=C1C` (centres unmarked) [Example 92, [4-(trifluoromethyl)phenyl]methyl 4-(4-chlorophenyl)-1-(2-methoxyethyl)-6-methyl-2-oxo-3,4-dihydropyridine-5-carboxylate], for which the EC50 on mTGR5 came out at 300 nM.
Still for that read-out and setting: the result for `COCCN1C(=O)CC(c2ccc(Cl)cc2)C(C(=O)OCc2cccc(C)c2)=C1C` (centres unmarked) [Example 99, m-tolylmethyl 4-(4-chlorophenyl)-1-(2-methoxyethyl)-6-methyl-2-oxo-3,4-dihydropyridine-5-carboxylate] reads 300 nM.
At mTGR5, `COCCN1C(=O)CC(c2ccc(Cl)cc2)C(C(=O)OCc2ccccc2OC(F)(F)F)=C1C` (centres unmarked) [Example 105, (2-trifluoromethoxyphenyl)methyl 4-(4-chlorophenyl)-1-(2-methoxyethyl)-6-methyl-2-oxo-3,4-dihydropyridine-5-carboxylate] showed an EC50 of 800 nM and a mTGR5 % trans of 63%.
